Laboratory results published in patent publication US4017611A, “Control of insects with 3-hydroxymethacrylic acid methyl ester dimethylthionophosphate” (priority 1970, dated 1977).
Where two headings read alike, the source gives them in different places.

What was measured:
adult houseflies = experiment: Gas action against adult houseflies; type: in vivo, Musca domestica (housefly); conditions: 10 mg active substance, 2 liter glass cylinder
Description: Using a pipette 10 mg of active substance were placed on a watch glass which was then covered with a wire mesh and placed in a 2 liter glass cylinder. Immediately thereafter 30 houseflies were introduced into the container which was then sealed.
A comparative test between compound 1 and PHOSDRIN (Registered Trade Mark) carried out according to this method gave the following mortality periods in minutes for 10%, 50% and 100% kill of the test animals.

[1] = system: one day old houseflies (Musca domestica); experiment: Ingestion test with one day old houseflies; type: in vivo; conditions: read-out: % flies killed; for mortality at 0.4 ppm: 0.4 ppm in 30% sugar water; for mortality at 0.8 ppm: 0.8 ppm in 30% sugar water; for mortality at 1.5 ppm: 1.5 ppm in 30% sugar water; for mortality at 3 ppm: 3 ppm in 30% sugar water; for mortality at 6 ppm: 6 ppm in 30% sugar water; for mortality at 12 ppm: 12 ppm in 30% sugar water; for mortality at 25 ppm: 25 ppm in 30% sugar water; for mortality at 50 ppm: 50 ppm in 30% sugar water; for mortality at 100 ppm: 100 ppm in 30% sugar water
Description: Dilution series were manufactured with water. As solvent for the test preparations and similarly as a nutrition agent for the flies, 30% sugar water was used which had been coloured with chlorantin light red (as an attractant). The dilutions were tested with one day old houseflies. The 1, 2 and 4 hour controls enabled the speed of action to be determined. By means of the 24 hour control the limit concentration (action strength) could also be determined.

[2] = Acute oral toxicity (warm blooded toxicity) in rats; conditions: rat, in vivo, po
rats = experiment: as above; conditions: orally, rats

COC(=O)C=C(C)OP(=O)(OC)OC [Phosdrin, reference compound]
Mortality time for 10% of the houseflies (adult houseflies; 10% kill): 22 min
Mortality time for 50% of the houseflies (adult houseflies; 50% kill): 25 min
Mortality time for 100% of the houseflies (adult houseflies; 100% kill): 30 min
mortality at 0.4 ppm ([1]; 1 hour): 0%
mortality at 0.4 ppm ([1]; 2 hours): 0%
mortality at 0.4 ppm ([1]; 4 hours): 0%
mortality at 0.4 ppm ([1]; 24 hours): 0%
mortality at 0.8 ppm ([1]; 1 hour): 0%
mortality at 0.8 ppm ([1]; 2 hours): 0%
mortality at 0.8 ppm ([1]; 4 hours): 0%
mortality at 0.8 ppm ([1]; 24 hours): 0%
mortality at 1.5 ppm ([1]; 1 hour): 0%
mortality at 1.5 ppm ([1]; 2 hours): 0%
mortality at 1.5 ppm ([1]; 4 hours): 0%
mortality at 1.5 ppm ([1]; 24 hours): 0%
mortality at 3 ppm ([1]; 1 hour): 0%
mortality at 3 ppm ([1]; 2 hours): 0%
mortality at 3 ppm ([1]; 4 hours): 0%
mortality at 3 ppm ([1]; 24 hours): 20%
mortality at 6 ppm ([1]; 1 hour): 0%
mortality at 6 ppm ([1]; 2 hours): 0%
mortality at 6 ppm ([1]; 4 hours): 10%
mortality at 6 ppm ([1]; 24 hours): 80%
mortality at 12 ppm ([1]; 1 hour): 0%
mortality at 12 ppm ([1]; 2 hours): 0%
mortality at 12 ppm ([1]; 4 hours): 20%
mortality at 12 ppm ([1]; 24 hours): 90%
mortality at 25 ppm ([1]; 1 hour): 20%
mortality at 25 ppm ([1]; 2 hours): 40%
mortality at 25 ppm ([1]; 4 hours): 60%
mortality at 25 ppm ([1]; 24 hours): 100%
mortality at 50 ppm ([1]; 1 hour): 30%
mortality at 50 ppm ([1]; 2 hours): 70%
mortality at 50 ppm ([1]; 4 hours): 80%
mortality at 50 ppm ([1]; 24 hours): 100%
mortality at 100 ppm ([1]; 1 hour): 100%
mortality at 100 ppm ([1]; 2 hours): 100%
mortality at 100 ppm ([1]; 4 hours): 100%
mortality at 100 ppm ([1]; 24 hours): 100%
LD50 [2]: 3 to 7 mg/kg
warm blooded toxicity LD50 (rats): 3-7 mg/kg body weight
